{
  "source": "patent US20250163104A1",
  "about": "“MACROCYCLIC IMMUNOMODULATORS” (priority 2021, published 2025)",
  "note": "Where a SMILES comes first, the peptide text is derived from it. Bridges are numbered along the chain shown (N, C = ends). [ ]: non-standard residue; d: D form. The star is where a group is joined. ξ: configuration not given here. Phe(4-CONH2) = NC(=O)c1ccc(C[C@H](N)C(=O)O)cc1; Phe(4-COOH) = N[C@@H](Cc1ccc(C(=O)O)cc1)C(=O)O; Bip = N[C@@H](Cc1ccc(-c2ccccc2)cc1)C(=O)O; Phe(3-F) = N[C@@H](Cc1cccc(F)c1)C(=O)O; Phe(3-Me) = Cc1cccc(C[C@H](N)C(=O)O)c1; Val(3-OH) = CC(C)(O)[C@H](N)C(=O)O; 4Pal = N[C@@H](Cc1ccncc1)C(=O)O; 2Thi = N[C@@H](Cc1cccs1)C(=O)O; Cha = N[C@@H](CC1CCCCC1)C(=O)O; Cit = NC(=O)NCCC[C@H](N)C(=O)O; Ile(3ξ) = CCC(C)[C@H](N)C(=O)O; Thr(3ξ) = CC(O)[C@H](N)C(=O)O; Carboxymethyl = O=C(O)C*; Nle = CCCC[C@H](N)C(=O)O; Orn = NCCC[C@H](N)C(=O)O; Dab = NCC[C@H](N)C(=O)O; Dap = NC[C@H](N)C(=O)O; Propargyl = C#CC*",
  "data": [
    {"target": "T1, human PD-1 / PD-L1-Ig binding on Jurkat cell line over-expressing human PD-1 (Jurkat-PD-1) (Homo sapiens, UniProt Q15116)", "T1 construct": "expressed in transfected cells; host or cells: Jurkat", "T1 sequence (Q15116 25-288)": "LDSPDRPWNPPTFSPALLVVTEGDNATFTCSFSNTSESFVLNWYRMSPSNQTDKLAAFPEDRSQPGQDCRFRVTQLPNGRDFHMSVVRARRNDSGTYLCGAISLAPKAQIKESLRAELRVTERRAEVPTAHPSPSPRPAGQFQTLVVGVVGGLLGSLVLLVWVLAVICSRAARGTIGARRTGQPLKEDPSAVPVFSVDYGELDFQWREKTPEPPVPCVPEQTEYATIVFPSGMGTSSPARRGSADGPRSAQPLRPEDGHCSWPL", "assay": "Jurkat-PD-1 Cell Binding High-Content Screening Assay (CBA)", "type": "cell-based", "conditions": "Jurkat-PD-1 cells, PE-labeled PD-L1-Ig 20 nM final; read-out: Jurkat HPD1_PDL1 IC50", "method_in_brief": "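Binding of fluorescent PD-L1-Ig (phycoerythrin linked via the Ig tag, 20 nM final) to PD-1-overexpressing Jurkat cells was imaged after a 2 h, 37° C compound pretreatment and 1 hour ligand incubation.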", "units": {"IC50": "nM"}, "values": [
      {"smiles": "CC(C)[C@@H]1NC(=O)[C@H](Cc2c[nH]c3ccccc23)NC(=O)[C@H](CC(=O)O)NC(=O)[C@H](Cc2ccc(OCC(=O)O)cc2)NC(=O)[C@H](CN)NC(=O)CSC[C@@H](C(=O)N[C@@H](C)C(N)=O)NC(=O)[C@H]([C@@H](C)O)NC(=O)[C@H](C(C)C)NC(=O)[C@H](CC2CCCCC2)NC(=O)[C@H](CCN)NC(=O)[C@@H](Cc2ccc(O)cc2)NC(=O)[C@H](CCCN)NC(=O)[C@H](CCC(=O)O)NC(=O)[C@H](Cc2ccc(-c3ccccc3)cc2)NC1=O", "note": "[Compound 1448] ({CH2CO}-[Dap]Y(Carboxymethyl)DWV[Bip]E[Orn][dY][Dab][Cha]VTCA-NH2; thioether N-14)", "IC50": 26.9},
      {"smiles": "CCC(C)[C@@H]1NC(=O)[C@H](Cc2ccc(-c3ccccc3)cc2)NC(=O)[C@H](C(C)O)NC(=O)[C@H](Cc2c[nH]c3ccccc23)NC(=O)[C@H](CC(=O)O)NC(=O)[C@H](Cc2ccc(OCC(=O)O)cc2)NC(=O)[C@H](C(C)O)NC(=O)CSC[C@@H](C(=O)N[C@@H](CC(N)=O)C(=O)O)NC(=O)[C@H](CO)NC(=O)[C@H](C(C)C)NC(=O)[C@H](CC(C)C)NC(=O)[C@H](CCN)NC(=O)[C@@H](CC(C)C)NC(=O)[C@H](CCCN)NC1=O", "note": "(stereo partly drawn) [Compound 2572] ({CH2CO}-[Thr(3ξ)]Y(Carboxymethyl)DW[Thr(3ξ)][Bip][Ile(3ξ)][Orn][dL][Dab]LVSCN-OH; thioether N-14)", "IC50": 77.4},
      {"smiles": "CCC(C)[C@@H]1NC(=O)[C@H](Cc2ccc(-c3ccccc3)cc2)NC(=O)[C@H](C(C)C)NC(=O)[C@H](Cc2cccc(C)c2)NC(=O)[C@H](CC(=O)O)NC(=O)[C@H](Cc2ccc(C(=O)O)cc2)NC(=O)[C@H](Cc2ccncc2)NC(=O)CSC[C@@H](C(=O)N[C@@H](CC(N)=O)C(N)=O)NC(=O)[C@H](CO)NC(=O)[C@H](C(C)C)NC(=O)[C@H](CC2CCCCC2)NC(=O)[C@H](CCN)NC(=O)[C@@H](CC(C)C)NC(=O)[C@H](CCCN)NC1=O", "note": "(stereo partly drawn) [Compound 2298] ({CH2CO}-[4Pal][Phe(4-COOH)]D[Phe(3-Me)]V[Bip][Ile(3ξ)][Orn][dL][Dab][Cha]VSCN-NH2; thioether N-14)", "IC50": 15.5},
      {"smiles": "Cc1cccc(C[C@@H]2NC(=O)[C@H](CC(=O)O)NC(=O)[C@H](Cc3ccc(C(=O)O)cc3)NC(=O)[C@H](Cc3ccncc3)NC(=O)CSC[C@@H](C(=O)N[C@@H](CCN)C(N)=O)NC(=O)[C@H](CCC(=O)O)NC(=O)[C@H](C(C)C)NC(=O)[C@H](CC3CCCCC3)NC(=O)[C@H](CCN)NC(=O)[C@@H](CC(C)C)NC(=O)[C@H](CCCN)NC(=O)[C@H](Cc3ccc(OCC(=O)O)cc3)NC(=O)[C@H](Cc3ccc(-c4ccccc4)cc3)NC(=O)[C@H](Cc3ccc(OCC(=O)O)cc3)NC2=O)c1", "note": "[Compound 2308] ({CH2CO}-[4Pal][Phe(4-COOH)]D[Phe(3-Me)]Y(Carboxymethyl)[Bip]Y(Carboxymethyl)[Orn][dL][Dab][Cha]VEC[Dab]-NH2; thioether N-14)", "IC50": 7.5},
      {"smiles": "Cc1cccc(C[C@@H]2NC(=O)[C@H](CC(=O)O)NC(=O)[C@H](Cc3ccc(O)cc3)NC(=O)[C@H](CC(N)=O)NC(=O)CSC[C@@H](C(=O)N[C@@H](C)C(N)=O)NC(=O)[C@H]([C@@H](C)O)NC(=O)[C@H](C(C)C)NC(=O)[C@H](CC3CCCCC3)NC(=O)[C@H](CCN)NC(=O)[C@@H](Cc3ccccc3)NC(=O)[C@H](CCCN)NC(=O)[C@H](CCC(=O)O)NC(=O)[C@H](Cc3ccc(-c4ccccc4)cc3)NC(=O)[C@H](C(C)C)NC2=O)c1", "note": "[Compound 1431] ({CH2CO}-NYD[Phe(3-Me)]V[Bip]E[Orn][dF][Dab][Cha]VTCA-NH2; thioether N-14)", "IC50": 11.6},
      {"smiles": "Cc1cccc(C[C@@H]2NC(=O)[C@H](CC(=O)O)NC(=O)[C@H](Cc3ccc(C(=O)O)cc3)NC(=O)[C@H](Cc3ccncc3)NC(=O)CSC[C@@H](C(=O)N[C@@H](CCN)C(N)=O)NC(=O)[C@H](CCC(=O)O)NC(=O)[C@H](C(C)(C)O)NC(=O)[C@H](CC3CCCCC3)NC(=O)[C@H](CCN)NC(=O)[C@@H](CC(C)C)NC(=O)[C@H](CCCN)NC(=O)[C@H](Cc3ccc(OCC(=O)O)cc3)NC(=O)[C@H](Cc3ccc(-c4ccccc4)cc3)NC(=O)[C@H](Cc3ccc(OCC(=O)O)cc3)NC2=O)c1", "note": "[Compound 2330] ({CH2CO}-[4Pal][Phe(4-COOH)]D[Phe(3-Me)]Y(Carboxymethyl)[Bip]Y(Carboxymethyl)[Orn][dL][Dab][Cha][Val(3-OH)]EC[Dab]-NH2; thioether N-14)", "IC50": 249},
      {"smiles": "CC(C)C[C@@H]1NC(=O)[C@H](CCN)NC(=O)[C@@H](CC(C)C)NC(=O)[C@H](CCN)NC(=O)[C@H](CCCNC(N)=O)NC(=O)[C@H](Cc2ccc(-c3ccccc3)cc2)NC(=O)[C@H](C(C)C)NC(=O)[C@H](Cc2c[nH]c3ccccc23)NC(=O)[C@H](CC(=O)O)NC(=O)[C@H](Cc2ccc(O)cc2)NC(=O)[C@H](CC(N)=O)NC(=O)CSC[C@@H](C(=O)N[C@@H](C)C(N)=O)NC(=O)[C@H](CO)NC(=O)[C@H](C(C)C)NC1=O", "note": "[Compound 1111] ({CH2CO}-NYDWV[Bip][Cit][Dab][dL][Dab]LVSCA-NH2; thioether N-14)", "IC50": 37.9},
      {"smiles": "CC(C)C[C@H]1NC(=O)[C@H](CCCN)NC(=O)[C@H](CCC(=O)O)NC(=O)[C@H](Cc2ccc(-c3ccccc3)cc2)NC(=O)[C@H](C(C)C)NC(=O)[C@H](Cc2c[nH]c3ccccc23)NC(=O)[C@H](CC(=O)O)NC(=O)[C@H](Cc2ccc(OCC(=O)O)cc2)NC(=O)[C@H](CN)NC(=O)CSC[C@@H](C(=O)N[C@@H](C)C(N)=O)NC(=O)[C@H]([C@@H](C)O)NC(=O)[C@H](C(C)C)NC(=O)[C@H](Cc2cccc(F)c2)NC(=O)[C@H](CCN)NC1=O", "note": "[Compound 1677] ({CH2CO}-[Dap]Y(Carboxymethyl)DWV[Bip]E[Orn][dL][Dab][Phe(3-F)]VTCA-NH2; thioether N-14)", "IC50": 21.1},
      {"smiles": "CCCC[C@@H]1NC(=O)[C@H](CC(N)=O)NC(=O)[C@@H](CC(C)C)NC(=O)[C@H](CN)NC(=O)[C@H](C(C)C)NC(=O)[C@H](Cc2ccc(-c3ccccc3)cc2)NC(=O)[C@H](CC(C)C)NC(=O)[C@H](Cc2c[nH]c3ccccc23)NC(=O)[C@H](CC(=O)O)NC(=O)[C@H](Cc2ccc(O)cc2)NC(=O)[C@H](Cc2ccccc2)NC(=O)CSC[C@@H](C(=O)NCC(N)=O)NC(=O)[C@H](CO)NC(=O)[C@H](C(C)C)NC1=O", "note": "[Compound 1397] ({CH2CO}-FYDWL[Bip]V[Dap][dL]N[Nle]VSCG-NH2; thioether N-14)", "IC50": 55.3},
      {"smiles": "Cc1cccc(C[C@@H]2NC(=O)[C@H](CC(=O)O)NC(=O)[C@H](Cc3ccc(OCC(=O)O)cc3)NC(=O)[C@H](C(C)O)NC(=O)CSC[C@@H](C(=O)N[C@@H](CCN)C(N)=O)NC(=O)[C@H](CO)NC(=O)[C@H](C(C)(C)O)NC(=O)[C@H](CC3CCCCC3)NC(=O)[C@H](CCN)NC(=O)[C@@H](CC(C)C)NC(=O)[C@H](CCCN)NC(=O)[C@H](Cc3ccc(O)cc3)NC(=O)[C@H](Cc3ccc(-c4ccccc4)cc3)NC(=O)[C@H](Cc3ccc(C(N)=O)cc3)NC2=O)c1", "note": "(stereo partly drawn) [Compound 2633] ({CH2CO}-[Thr(3ξ)]Y(Carboxymethyl)D[Phe(3-Me)][Phe(4-CONH2)][Bip]Y[Orn][dL][Dab][Cha][Val(3-OH)]SC[Dab]-NH2; thioether N-14)", "IC50": 4},
      {"smiles": "C#CCOc1ccc(C[C@@H]2NC(=O)[C@H](C(C)C)NC(=O)[C@H](CC3CCCCC3)NC(=O)[C@H](CCN)NC(=O)[C@@H](CC(C)C)NC(=O)[C@H](CCCN)NC(=O)[C@H](Cc3ccc(OCC(=O)O)cc3)NC(=O)[C@H](Cc3ccc(-c4ccccc4)cc3)NC(=O)[C@H](Cc3ccc(OCC(=O)O)cc3)NC(=O)[C@H](Cc3cccc(C)c3)NC(=O)[C@H](CC(=O)O)NC(=O)[C@H](Cc3ccc(OCC(=O)O)cc3)NC(=O)[C@H](CCN)NC(=O)CSC[C@@H](C(=O)N[C@@H](CCN)C(N)=O)NC2=O)cc1", "note": "[Compound 1814] ({CH2CO}-[Dab]Y(Carboxymethyl)D[Phe(3-Me)]Y(Carboxymethyl)[Bip]Y(Carboxymethyl)[Orn][dL][Dab][Cha]VY(Propargyl)C[Dab]-NH2; thioether N-14)", "IC50": 23},
      {"smiles": "CC(C)C[C@H]1NC(=O)[C@H](CCCN)NC(=O)[C@H](CCC(=O)O)NC(=O)[C@H](Cc2ccc(-c3ccccc3)cc2)NC(=O)[C@H](C(C)C)NC(=O)[C@H](Cc2cccs2)NC(=O)[C@H](CC(=O)O)NC(=O)[C@H](Cc2cccs2)NC(=O)[C@H](CN)NC(=O)CSC[C@@H](C(=O)N[C@@H](C)C(N)=O)NC(=O)[C@H]([C@@H](C)O)NC(=O)[C@H](C(C)C)NC(=O)[C@H](CC2CCCCC2)NC(=O)[C@H](CCN)NC1=O", "note": "[Compound 2205] ({CH2CO}-[Dap][2Thi]D[2Thi]V[Bip]E[Orn][dL][Dab][Cha]VTCA-NH2; thioether N-14)", "IC50": 18.6},
      {"smiles": "CC(C)C[C@H]1NC(=O)[C@H](CCCN)NC(=O)[C@H](CCC(=O)O)NC(=O)[C@H](Cc2ccc(-c3ccccc3)cc2)NC(=O)[C@H](C(C)C)NC(=O)[C@H](Cc2c[nH]c3ccccc23)NC(=O)[C@H](CC(=O)O)NC(=O)[C@H](Cc2ccc(C(=O)O)cc2)NC(=O)[C@H](Cc2ccc(OCC(=O)O)cc2)NC(=O)CSC[C@@H](C(=O)N[C@@H](C)C(N)=O)NC(=O)[C@H]([C@@H](C)O)NC(=O)[C@H](C(C)C)NC(=O)[C@H](Cc2ccccc2)NC(=O)[C@H](CCN)NC1=O", "note": "[Compound 1667] ({CH2CO}-Y(Carboxymethyl)[Phe(4-COOH)]DWV[Bip]E[Orn][dL][Dab]FVTCA-NH2; thioether N-14)", "IC50": 30},
      {"smiles": "CC(C)C[C@@H]1NC(=O)[C@H](CCN)NC(=O)[C@@H](CC(C)C)NC(=O)[C@H](CCN)NC(=O)[C@H](CCC(=O)O)NC(=O)[C@H](Cc2ccc(-c3ccccc3)cc2)NC(=O)[C@H](C(C)C)NC(=O)[C@H](Cc2c[nH]c3ccccc23)NC(=O)[C@H](CC(=O)O)NC(=O)[C@H](Cc2ccc(OCC(=O)O)cc2)NC(=O)[C@H](Cc2ccncc2)NC(=O)CSC[C@@H](C(=O)N[C@@H](C)C(N)=O)NC(=O)[C@H](CO)NC(=O)[C@H](C(C)C)NC1=O", "note": "[Compound 1266] ({CH2CO}-[4Pal]Y(Carboxymethyl)DWV[Bip]E[Dab][dL][Dab]LVSCA-NH2; thioether N-14)", "IC50": 29.6}
    ]}
  ]
}
